Assay results as given in ChEMBL document CHEMBL1201862, “PubChem BioAssay data set” (2004).
Activity calls are given as the source filed them.

Key:
Major prion protein = Major prion protein (Homo sapiens, UniProt P04156); assay type: functional, cell-based
[1] = A cytotoxicity screen of small molecule inhibitors of the PhoP region in Salmonella typhi identified in the primary screen. [Related pubchem assays: 1850, 1864, 1985 ]; assay type: functional
[2] = molecular target: NAD-dependent protein deacylase sirtuin-5, mitochondrial (Homo sapiens, UniProt Q9NXA8); experiment: sirtuin-5 deacylation blockers, concentration series – biochemical, fluorescence imaging, cherry-pick, set 5, dose response (AID 720591);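 also: desuccinylation of succinyl peptide AMC substrate read as fluorescence after trypsin release; potency of inhibitors that lower fluorescence and may act on trypsin instead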
[3] = molecular target: T1, Short transient receptor potential channel 4 (Mus musculus, UniProt Q9QUQ5); experiment: calcium entry via TRPC4 opening agents – cell-based, HEK293 TRPC4/mu-opioid, Fluo-4 calcium, dose response (AID 434937); assay type: functional
T1 sequence (Q9QUQ5 whole entry): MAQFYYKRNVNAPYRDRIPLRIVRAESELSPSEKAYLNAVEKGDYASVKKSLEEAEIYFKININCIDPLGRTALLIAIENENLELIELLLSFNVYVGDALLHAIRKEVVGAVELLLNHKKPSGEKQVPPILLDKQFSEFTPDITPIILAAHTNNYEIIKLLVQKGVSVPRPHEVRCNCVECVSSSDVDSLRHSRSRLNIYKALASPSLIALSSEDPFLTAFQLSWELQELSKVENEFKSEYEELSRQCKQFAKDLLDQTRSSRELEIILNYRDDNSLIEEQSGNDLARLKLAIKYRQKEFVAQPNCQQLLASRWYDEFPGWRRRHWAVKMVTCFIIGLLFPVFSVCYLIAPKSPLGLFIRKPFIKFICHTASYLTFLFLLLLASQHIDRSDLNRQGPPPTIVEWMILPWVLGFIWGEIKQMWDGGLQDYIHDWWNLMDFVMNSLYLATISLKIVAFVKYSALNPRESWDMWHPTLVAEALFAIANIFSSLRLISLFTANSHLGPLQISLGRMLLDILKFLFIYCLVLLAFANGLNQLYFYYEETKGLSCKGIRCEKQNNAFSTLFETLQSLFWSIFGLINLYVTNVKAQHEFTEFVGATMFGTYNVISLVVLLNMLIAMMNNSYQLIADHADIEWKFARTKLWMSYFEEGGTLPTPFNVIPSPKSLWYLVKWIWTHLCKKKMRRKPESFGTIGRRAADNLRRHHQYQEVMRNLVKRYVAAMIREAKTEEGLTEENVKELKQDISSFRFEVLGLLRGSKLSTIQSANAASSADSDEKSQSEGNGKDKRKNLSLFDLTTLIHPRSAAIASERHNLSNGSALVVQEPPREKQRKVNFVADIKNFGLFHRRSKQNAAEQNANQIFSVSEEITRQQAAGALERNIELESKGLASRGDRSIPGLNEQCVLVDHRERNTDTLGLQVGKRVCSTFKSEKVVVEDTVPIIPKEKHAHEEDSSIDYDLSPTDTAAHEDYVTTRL

Mu-type opioid receptor = Mu-type opioid receptor (Homo sapiens, UniProt P35372); experiment: (§1) Counterscreen for agonists of heterodimerization of the mu 1 (OPRM1) and delta 1 (OPRD1) opioid receptors: Luminescence-based cell-based high throughput dose response assay to identify agonists of OPRM1 homodimerization.; assay type: functional
[4] = molecular target: Delta-type opioid receptor (Homo sapiens, UniProt P41143); experiment: as §1, with “of OPRD1” for “of OPRM1”, “homodimerization. [Related pubchem assays (depositor defined):AID504326, AID504355, AID504692, AID504904, AID504905]” for “homodimerization.”; assay type: functional
[5] = molecular target: 5-hydroxytryptamine receptor 5A (Homo sapiens, UniProt P47898); experiment: Counterscreen for agonists of OPRM1-OPRD1 heterodimerization: luminescence-based cell-based high throughput dose response assay to identify agonists of 5-hydroxytryptamine (serotonin) 5A receptor (HTR5A). [Related pubchem assays (depositor defined):AID504326, AID504355, AID504692, AID504904, AID504905]; assay type: functional
[6] = molecular target: T2, Endoribonuclease toxin MazF (Escherichia coli K-12, UniProt P0AE70); experiment: activation of MazEF endoribonuclease cleavage – biochemical, fluorescence, single-stranded RNA substrate, uHTS hits, dose response (AID 588481); assay type: functional
T2 sequence (P0AE70 whole entry): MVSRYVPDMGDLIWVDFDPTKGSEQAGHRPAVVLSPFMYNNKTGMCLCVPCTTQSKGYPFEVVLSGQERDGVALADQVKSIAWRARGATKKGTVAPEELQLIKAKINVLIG

[7] = molecular target: T3, Calpain-2 catalytic subunit (Sus scrofa, UniProt P43367); experiment: m-calpain protease blockers, concentration series – biochemical, fluorogenic peptide substrate, dose response (AID 1420); assay type: functional
T3 sequence (P43367 whole entry): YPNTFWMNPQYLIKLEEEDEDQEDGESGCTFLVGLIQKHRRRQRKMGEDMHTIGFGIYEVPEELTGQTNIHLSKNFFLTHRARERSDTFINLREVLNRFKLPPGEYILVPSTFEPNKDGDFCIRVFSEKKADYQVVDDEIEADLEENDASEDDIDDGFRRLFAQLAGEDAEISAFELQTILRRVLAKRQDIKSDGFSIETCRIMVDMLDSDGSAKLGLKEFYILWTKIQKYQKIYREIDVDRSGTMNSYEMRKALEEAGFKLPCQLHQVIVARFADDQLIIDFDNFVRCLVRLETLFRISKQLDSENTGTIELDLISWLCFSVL

[8] = OVCAR-3 cell viability loss – plate reader, dry powder samples, PAX8 inhibitor project, dose response (AID 743044); assay type: functional, cell-based
Paired box protein Pax-8 = Paired box protein Pax-8 (Homo sapiens, UniProt Q06710); experiment: PAX8 transcriptional activity inhibition in RMG-I – RMG-I cells, luciferase, cherry-pick, dose response (AID 687027); assay type: functional, cell-based;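 also: luciferase reporter driven by Pax8 target thyroperoxidase promoter measured by SteadyGlo luminescence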
[9] = OVCAR8 cell viability loss – plate reader, dry powder samples, PAX8 project, dose response (AID 743197); assay type: functional, cell-based; conditions: OVCAR-8
Beta-galactosidase = Beta-galactosidase (Escherichia coli, UniProt Q8VNN2); experiment: PubChem AID 485352; assay type: functional
[10] = molecular target: T4, Type-1 angiotensin II receptor (Homo sapiens, UniProt P30556); experiment: antagonism of angiotensin II type 1 receptor – cell-based, uHTS hits, selectivity assay for APJ receptor antagonist project, dose response (AID 463214); assay type: functional;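 also: antagonist potency against angiotensin II stimulated AT1 response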
T4 sequence (P30556 whole entry): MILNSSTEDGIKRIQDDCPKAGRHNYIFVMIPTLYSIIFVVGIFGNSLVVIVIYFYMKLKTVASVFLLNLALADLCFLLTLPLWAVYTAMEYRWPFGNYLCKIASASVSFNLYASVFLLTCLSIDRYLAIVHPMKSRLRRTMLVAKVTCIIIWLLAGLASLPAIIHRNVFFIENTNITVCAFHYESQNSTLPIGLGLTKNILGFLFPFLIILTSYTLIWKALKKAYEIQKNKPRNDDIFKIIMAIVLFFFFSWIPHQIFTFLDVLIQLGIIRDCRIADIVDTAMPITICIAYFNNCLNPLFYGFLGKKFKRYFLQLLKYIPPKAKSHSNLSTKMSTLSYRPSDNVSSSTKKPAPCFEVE

With `CCOC(=O)CSc1ccc2ccccc2n1` the IC50 (cells) was > 138 µM (inactive) and the IC50 (Major prion protein) was 9.54 µM (active).

With `CC1=C(c2ccccc2)SC2=NCCN21` the EC50 [1] was > 50 µM (active) and the AC50 [2] was > 30 µM (inactive).

In the case of `CCCN(c1ccc(OCC)cc1)S(=O)(=O)c1ccc2c(c1)NC(=O)CO2`, the IC50 (cells) is reported as > 138 µM (inactive) and the IC50 (Major prion protein) is reported as 13.1 µM (inactive).

In the case of `Cc1cccc(OCCC(=O)NCC(c2ccccc2)N(C)C)c1` (stereo not drawn), the EC50 [3] is reported as 0.473 µM (active), the EC50 (Mu-type opioid receptor) is reported as > 92.5 µM (inactive) and the EC50 [4] is reported as > 92.5 µM (inactive). The EC50 [5] was > 92.5 µM (inactive).

In the case of `CC1CC[C+]([N-]NS(=O)(=O)c2ccc([N+](=O)[O-])cc2)CC1`, the EC50 [6] is reported as > 99 µM (inactive).

In the case of `Nc1nc(O)c2ncn([C@@H]3O[C@H](CNCc4ccc(OCCCN5CCOCC5)cc4)[C@@H](O)[C@H]3O)c2n1`, the AC50 [2] is reported as > 30 µM (inactive).

With `C=CCNC(=S)N/N=C/c1ccc(C(C)(C)C)cc1` the IC50 [7] was 10.9 µM (not active).

For `Cc1cc(Br)c(NC(=O)COC(=O)CC2CC3CCC2C3)c(Br)c1` (stereo not drawn), the AC50 [2] was 21.8 µM (active).

In the case of `COC(=O)[C@@]12C[C@@H](CC(=O)NCc3ccccc3)C(=O)N(Cc3ccccc3)C1=CCC(C)(C)C2`, the AC50 [2] is reported as 19.1 µM (active).

With `C[C@@H]1CCCCO[C@@H](CN(C)S(=O)(=O)c2ccc(F)cc2)[C@H](C)CN([C@H](C)CO)C(=O)c2cc(NS(=O)(=O)c3ccc(Cl)cc3)ccc2O1` the AC50 [8] was 48.9 µM (active), the AC50 (Paired box protein Pax-8) was 5.05 µM (active) and the AC50 [9] was > 70 µM (inactive).

With `C[C@H](CO)N1C[C@H](C)[C@H](CN(C)S(=O)(=O)c2ccc(Cl)cc2)OCCCC[C@H](C)Oc2ccc(NS(=O)(=O)c3ccc(Cl)cc3)cc2C1=O` the AC50 [8] was 34.3 µM (active), the AC50 (Paired box protein Pax-8) was 5.86 µM (active) and the AC50 [9] was 58.9 µM (active).

In the case of `Cc1ccc(S(=O)(=O)N/N=C/c2ccc3nccnc3c2)cc1`, the EC50 (Beta-galactosidase) is reported as > 40 µM (inactive) and the IC50 [10] is reported as > 40 µM (not active).
